Paper PMC6211256, “From cycloheptathiophene-3-carboxamide to oxazinone-based derivatives as allosteric HIV-1 ribonuclease H inhibitors” (Journal of Enzyme Inhibition and Medicinal Chemistry, 2018)
Entries after “also recorded” stand apart in the source; their conditions may differ. Like-named read-outs stand apart in the source and are kept apart here.

Experiments:
[1] = target: T1, HIV-1 RT-associated RNase H (Human immunodeficiency virus type 1 group M subtype B, UniProt P04585); set-up: method as in PMID 26990134; conditions: previously reported value; read-out: IC50, RNase H inhibition; cited from earlier work
[2] = target: T2, HIV-1 RT-associated RNA dependent DNA polymerase (RDDP) (Human immunodeficiency virus type 1 group M subtype B, UniProt P04585); set-up: method as in PMID 26990134; conditions: RDDP vs RNase H; cited from earlier work
[3] = target: T1, HIV-1 RT-associated RNase H; assay: HIV-1 DNA polymerase-independent RNase H activity determination (wt RT); format: biochemical
Protocol: (§1) Heterodimeric RT was expressed essentially as described[19]^,[39]. Using a BioLogic LP system (Biorad), using a combination of immobilised metal affinity (Ni-Sepharose high performance, Healthcare Lifescience) and ion exchange chromatography (Hi-trap heparin HP GE). The protein was dialysed and stored in buffer containing 50 mM Tris HCl pH 7.0, 25 mM NaCl, 1 mM EDTA, and 50% glycerol. Catalytic activities and protein concentrations were determined. Enzyme-containing fractions were pooled and aliquots were stored at −80 °C.
(§2) HIV RT-associated RNase H activity was measured as described[40] using as a control the RNase H selective inhibitor RDS1759[9], and using different amount of enzymes according to a linear range of dose-response curve: 20 ng of WT RT; 75 ng V108F RT; 50 ng Y188A RT; 30 ng W229A RT; 100 ng A502F RT.

[4] = Cytotoxicity in MT-4 cells; conditions: human
[5] = target: V108F RT (RDDP function) (Human immunodeficiency virus type 1 group M subtype B, UniProt P04585, V695F); assay: RDDP activity of V108F mutated RT; format: biochemical, HIV-1
Protocol: (§3) RNA-dependent DNA polymerase (RDDP) activity was measured as described[17] using and different amounts of enzymes according to a linear range of dose-response curve: 6 ng wt RT; 19 ng V108F RT; 45 ng Y188A RT; 30 ng W229A RT; A502F RT. The Yonetani-Theorell analysis was performed as previously described[41]^,[42].

[6] = target: T2, HIV-1 RT-associated RNA dependent DNA polymerase (RDDP); assay: HIV-1 RNA-dependent DNA polymerase activity determination (wt RT); format: biochemical
Protocol: as §1, §3

[7] = target: Y188A RT (RDDP function) (Human immunodeficiency virus type 1 group M subtype B, UniProt P04585, Y775A); assay: RDDP activity of Y188A mutated RT; format: biochemical, HIV-1
Protocol: as §3

[8] = target: A502F RT (RDDP function) (Human immunodeficiency virus type 1 group M subtype B, UniProt P04585, A1089F); assay: RDDP activity of A502F mutated RT; format: biochemical, HIV-1; conditions: compared with wt RT
Protocol: as §3

[9] = target: W229A RT (RNase H function) (Human immunodeficiency virus type 1 group M subtype B, UniProt P04585, W816A); assay: RNase H activity of W229A mutated RT; format: biochemical, HIV-1; conditions: compared with wt RT
Protocol: as §2

[10] = target: p66/p51 HIV-1 RT (Human immunodeficiency virus type 1 group M subtype B, UniProt P04585); format: binding; conditions: increasing concentration of compound; 100 ng/µl HIV-1 RT
[11] = target: W229A RT (RDDP function) (Human immunodeficiency virus type 1 group M subtype B, UniProt P04585, W816A); assay: RDDP activity of W229A mutated RT; format: biochemical, HIV-1; conditions: compared with wt RT
Protocol: as §3

[12] = target: Y188A RT (RNase H function) (Human immunodeficiency virus type 1 group M subtype B, UniProt P04585, Y775A); assay: RNase H activity of Y188A mutated RT; format: biochemical, HIV-1; conditions: compared with wt RT
Protocol: as §2

[13] = target: HIV-1 RT wild type RNA-dependent DNA polymerase activity (Human immunodeficiency virus type 1 group M subtype B, UniProt P04585); assay: Yonetani-Theorell analysis of combination with EFV on RDDP function; format: biochemical; conditions: compound 22 at 10 and 30 μM with EFV
Protocol: as §3

[14] = target: V108F RT (RNase H function) (Human immunodeficiency virus type 1 group M subtype B, UniProt P04585, V695F); assay: RNase H activity of V108F mutated RT; format: biochemical, HIV-1; conditions: compared with wt RT
Protocol: as §2

[15] = target: A502F RT (RNase H function) (Human immunodeficiency virus type 1 group M subtype B, UniProt P04585, A1089F); assay: RNase H activity of A502F mutated RT; format: biochemical, HIV-1
Protocol: as §2

[16] = Interaction between Mg2+ and HIV-1 RT inhibitors (UV-Vis spectra with MgCl2); format: physicochemical; conditions: 100 µM compound, MgCl2 up to 1.25 mM
Protocol: The effects of the magnesium ions were evaluated by mean of spectrophotometric method as reported, using a Ultrospec 2100 pro UV-Vis spectrophotometer (Amersham Biosciences) and Hellma quartz cuvette with 1 cm optical path. […]. Each studied compound was dissolved in DMSO to a final concentration of 10 mM and diluted in milliQ water to a final concentration of 100 µM. Each obtained solution was placed in a cuvette and the UV-Vis and the spectra were recorded between 200 and 700 nm using water milliQ (with a percentage of DMSO equal to the one present in the sample solution) as reference. Thereafter, small volumes of MgCl2 aqueous solution were added both in the sample and in the reference cuvettes to obtain a series of solutions containing increasing concentrations of MgCl2, up to 1.25 mM, carefully pipetting to mix, and the UV-Vis spectra were repeated. Each experiment was performed in triplicate.

[17] = wt RT, read-out: IC50, HIV-1 RT-associated RNase H activity

SMILES	IC50 [3, 17] [µM]	CC50 [4] [µM]	also measured
O=C(Nc1sc2c(c1C(=O)Nc1ccccn1)CCCCC2)c1ccc(O)c(O)c1 [Compound 1]			IC50 [1]: 0.84 µM; weaker potency against the polymerase activity with respect to RNase H activity [2]: 20 fold
Nc1sc2c(c1C(=O)Nc1ccc(Cl)cc1)CCCCC2 [Compound 5]	16.5		
NC(=O)c1c(NC(=O)c2ccc(O)c(O)c2)sc2c1CCCCC2 [Compound 6, 2-[(3,4-Dihydroxybenzoyl)amino]-5,6,7,8-tetrahydro-4H-cyclohepta[b]thiophene-3-carboxamide]	2.6		
COc1ccccc1C(=O)Nc1sc2c(c1C(N)=O)CCCCC2 [Compound 7, 2-[(2-Methoxybenzoyl)amino]-5,6,7,8-tetrahydro-4H-cyclohepta[b]thiophene-3-carboxamide]	14		
O=c1oc(-c2ccc(O)c(O)c2)nc2sc3c(c12)CCCCC3 [Compound 10, 2–(3,4-Dihydroxyphenyl)-6,7,8,9-tetrahydro-4H,5H-cyclohepta[4,5]thieno[2,3-d][1,3]oxazin-4-one]	1.1	27 to 300	IC50 ([3]; compound added after the RNA:DNA duplex substrate, read-out: IC50, RNase H activity, compound added after the RNA:DNA duplex substrate): 11 µM
O=c1oc(-c2ccccc2O)nc2sc3c(c12)CCCCC3 [Compound 12, 2–(2-Hydroxyphenyl)-6,7,8,9-tetrahydro-4H,5H-cyclohepta[4,5]thieno[2,3-d][1,3]oxazin-4-one]	18.2		
O=c1oc(-c2ccc(O)c(O)c2)nc2sc3c(c12)CCCC3 [Compound 20, 2–(3,4-Dihydroxyphenyl)-5,6,7,8-tetrahydro-4H-[1]benzothieno[2,3-d][1,3]oxazin-4-one]	3.35	27 to 300	
O=c1oc(-c2ccc(O)c(O)c2)nc2sc3c(c12)CCC3 [Compound 21, 2–(3,4-Dihydroxyphenyl)-6,7-dihydro-4H,5H-cyclopenta[4,5]thieno[2,3-d][1,3]oxazin-4-one]	1	27 to 300	
O=c1oc(-c2ccc(O)c(O)c2)nc2sc3ccccc3c12 [Compound 22, 2–(3,4-Dihydroxyphenyl)-4H-[1]benzothieno[2,3-d][1,3]oxazin-4-one]	0.53	27 to 300	IC50 [5]: 10.6 µM; IC50 [6]: 2.9 µM; IC50 [7]: 9.64 µM; effect of A502F substitution on inhibition of RDDP [8]: not significantly affecting; effect of W229A substitution on inhibition of RNase H [9]: did not significantly affect; change of RT melting temperature (Tm) [10]: dose-dependent increase in the RT Tm; effect of W229A substitution on inhibition of RDDP [11]: did not significantly affect; effect of Y188A substitution on inhibition of RNase H [12]: no significant effect; Yonetani-Theorell: combined RDDP inhibition with EFV [13]: kinetically mutually exclusive; effect of V108F substitution on inhibition of RNase H [14]: no significant effect; IC50 [15]: > 100 µM; magnesium complexation (UV-Vis spectra) [16]: did not show any shift in the maximum of absorbance; also recorded: unable to chelate Mg^2+ ions
O=c1oc(-c2ccc(O)c(O)c2)nc2c3c(sc12)CCCCC3 [Compound 23, 2–(3,4-Dihydroxyphenyl)-7,8,9,10-tetrahydrocyclohepta[4,5]thieno[3,2-d][1,3]oxazin-4(6H)-one]		27 to 300	
O=c1oc(-c2ccc(O)c(O)c2)nc2c1sc1ccccc12 [Compound 24, 2–(3,4-Dihydroxyphenyl)-4H-[1]benzothieno[3,2-d][1,3]oxazin-4-one]	0.96	27 to 300	IC50 [6]: 14.6 µM; change of RT melting temperature (Tm) [10]: dose-dependent increase in the RT Tm; magnesium complexation (UV-Vis spectra) [16]: did not show any shift in the maximum of absorbance; also recorded: unable to chelate Mg^2+ ions
O=c1oc(-c2ccc(O)c(O)c2)nc2c1CCCCC2 [Compound 25, 2–(3,4-Dihydroxyphenyl)-6,7,8,9-tetrahydrocyclohepta[d][1,3]oxazin-4(5H)-one]		27 to 300	
O=c1oc(-c2ccc(O)c(O)c2)nc2ccccc12 [Compound 26, 2–(3,4-Dihydroxyphenyl)-4H-3,1-benzoxazin-4-one]		27 to 300	
O=c1[nH]c(-c2ccc(O)c(O)c2)nc2ccccc12 [Compound 27, 2–(3,4-Dihydroxyphenyl)quinazolin-4(3H)-one]		27 to 300	
